Laboratory results reported in patent US5238964A, “Agent for treatment of cerebrovascular contraction” (Torii & Co., Ltd., priority 1990, dated 1993).

How the values were obtained:
[1] = experimental subarachnoid bleeding in rabbits, basal arteria thickness ratio; type: in vivo, rabbit; conditions: for suppression of cerebrovascular contraction subsequent to subarachnoid bleeding: rabbits, i.v.; for Basal arteria thickness ratio: after vs before subarachnoid bleeding
Procedure: By injecting previously collected blood into the postcisterna of a rabbit, subarachnoid bleeding similar to human subarachnoid bleeding can be produced experimentally in the rabbit. The therapeutic effect of a pharmaceutical composition for treating cerebrovascular contraction is judged by comparing the thickness of the basal arteria before and after the experimental production of subarachnoid bleeding.
Subarachnoid bleeding was produced experimentally in rabbits, and 20 minutes thereafter 3 mg, 6 mg and 9 mg of 6-amidino-2-naphthyl p-guanidinobenzoate dimethanesulfonate [drawing 12] were respectively administered intravenously to the rabbits.

[2] = intermittent intravenous administration to subarachnoid bleeding patients after acute phase operation (DIND, CT low, Angiographic Spasm Scale, Glasgow Outcome Scale); type: in vivo, human (patients); conditions: for CT low due to spasm: control 43%; for good recovery (Glasgow Outcome Scale) / vegetative survival+death (Glasgow Outcome Scale): control 36%
Procedure: We have tried intermittent intravenous administration of FUT-175 (nafamostat mesilate, the present compound) for the purpose of prevention and/or treatment of cerebrovascular contraction after acute phase operation on subarachnoid bleeding patients. A dosage of 40-160 mg/day was chosen by converting the amount of drug per kg rabbit weight to amount of drug per kg of human weight.
The subjects were the ruptured cerebral aneurysm patients who had acute phase operation and belonged to Group 3 or 4 in Fisher's preoperative CT classification (Fisher, C. M., et al., "Cerebral vasospasm with ruptured saccular aneurysm-Clinical manifestations" (1977), Neurosurgery, volume 1, pages 245-248). […] Also, the subjects were limited to the cases of Grades II-IV in Hunt and Hess gravity grating without modification by previous history and to the patients to whom administration could be started within 48 hours after crisis (Hunt, W. E., et al., "Surgical risk as related to time of intervention in the repair of intracranial aneurysms" (1968), J. Neurosurg., volume 28, pages 14-20).
The compound was given to the subjects by intermittent intravenous administration starting immediately after operation. In Group A, the compound was administered twice a day, 20 mg per administration (40 mg in total daily dosage) for 4 days; four times a day, 20 mg per administration (80 mg in total daily dosage) for 4 days in Group B; and four times a day, 40 mg per administration (160 mg in total daily dosage) for 4 days in Group C. Each dose of the compound was dissolved in 100 ml of physiological saline. Time of one intravenous administration was normally 2 hours.
The control cases were the serious subarachnoid bleeding patients after acute phase clipping operation performed in our clinic in 1989. Both groups were substantially commensurate with each other in gravity grating and CT classification (Fisher classification by computed tomography), but in the control group there were slightly more cases of mycotic cerebral aneurysm than in the treated group.
There was no difference between the control and treated groups in substances of treatment excepting administration of the present compound and in operating staff. The effect of the treatment was judged by occurrence or non-occurrence of delayed ischemic neurological deficit (DIND), low-density CT area due to vasospasm and caliber change in arteries as observed by cerebral angiography conducted in the period from day 5 to day 8 (post occurrence of cerebrovascular contraction) which is considered the peak period of development of vasospasm.
For judgement of spasm in the control group, an Angiographic Spasm Scale (ASS) of the following grading was prepared:
Grade 0 (none): No caliber change in any arteries,
Grade 1 (mild): Vascular contraction is localized,
Grade 2 (moderate): Multisegmental vascular contraction is observed, and
Grade 3 (severe): Severe contraction exceeding 50% is seen in multisegmental sites (Weir, B., et al., "Time course of vasospasm in man" (1978), J. Neurosurg., volume 48, pages 173-178; Kim, H., et al., "Time course of vasospasm--Its clinical significance" (1979), Neuro. Med. Chir. (Tokyo), volume 19, pages 95-102).
The Glasgow Outcome Scale (GOS) was used to evaluate the outcome one month after crisis. According to GOS, there are five degrees: 1-death, 2-vegetative state, 3-severe disability, 4-moderate disability, 5-good recovery.

[3] = tested on: circulating blood coagulating action; test: bleeding and coagulation times measured during intravenous administration in treated groups B and C; type: in vivo, human (patients)
Source text: The present compound is a serine protease inhibitor which can inhibit various kinds of serine protease including C 1r, C 1s, factor B and factor D of complement system, factor XIIa, factor Xa and thrombin of coagulation system, plasma kallikrein of quinine system, plasmin of fibrinolytic system, trypsin, etc. […] It was considered that the administration method employed in this experiment would give no influence on circulating blood coagulating action of the compound.

platelet agglutination = conditions: cited from earlier work
C 1r = conditions: complement system; cited from earlier work
C 1s = conditions: complement system; cited from earlier work
[4] = tested on: factor B of complement system; conditions: cited from earlier work
[5] = tested on: factor D of complement system; conditions: cited from earlier work
factor XIIa = conditions: coagulation system; cited from earlier work
factor Xa = conditions: coagulation system; cited from earlier work
thrombin = conditions: coagulation system; cited from earlier work
plasma kallikrein = conditions: quinine system; cited from earlier work
plasmin = conditions: fibrinolytic system; cited from earlier work
trypsin = conditions: cited from earlier work
[6] = cited from earlier work
[7] = Groups A, B and C, one month after crisis
[8] = Groups B and C (higher dosage), one month after crisis
[9] = after serious subarachnoid bleeding

CS(=O)(=O)O.N=C(N)Nc1ccc(C(=O)Oc2ccc(SCCN3C(=O)CCC3=O)cc2)cc1 [4-(2-succinimidoethylthio)phenyl 4-guanidinobenzoate methanesulfonate]
suppression of cerebrovascular contraction subsequent to subarachnoid bleeding [1]: clearly suppressed the cerebrovascular contraction subsequent to subarachnoid bleeding, showing the same effect as that of the compound used in Example 1

CS(=O)(=O)O.CS(=O)(=O)O.N=C(N)Nc1ccc(C(=O)Oc2ccc3cc(C(=N)N)ccc3c2)cc1 [6-amidino-2-naphthyl p-guanidinobenzoate dimethanesulfonate]
Basal arteria thickness ratio ([1]; 3 mg/kg i.v., 1st day): 86%
Basal arteria thickness ratio ([1]; 3 mg/kg i.v., 2nd day): 79%
Basal arteria thickness ratio ([1]; 3 mg/kg i.v., 3rd day): 85%
Basal arteria thickness ratio ([1]; 3 mg/kg i.v., 4th day): 88%
Basal arteria thickness ratio ([1]; 3 mg/kg i.v., 5th day): 90%
Basal arteria thickness ratio ([1]; 6 mg/kg i.v., 1st day): 97%
Basal arteria thickness ratio ([1]; 6 mg/kg i.v., 2nd day): 95%
Basal arteria thickness ratio ([1]; 6 mg/kg i.v., 3rd day): 95%
Basal arteria thickness ratio ([1]; 6 mg/kg i.v., 4th day): 96%
Basal arteria thickness ratio ([1]; 6 mg/kg i.v., 5th day): 101%
suppression of cerebrovascular contraction subsequent to subarachnoid bleeding [1]: clearly suppressed the cerebrovascular contraction
CT-low attributable to DIND ([2]; Group A, 40 mg/day for 4 days): 2 out of 9
cases at grade 1 of ASS ([2]; Group A, 40 mg/day for 4 days): 3 cases
cases at grade 2 of ASS ([2]; Group A, 40 mg/day for 4 days): 3 cases
cases at grade 3 of ASS ([2]; Group A, 40 mg/day for 4 days): 3 cases
incidence of DIND ([2]; Group A, 40 mg/day for 4 days): 2 out of 9
cases at grade 0 (no caliber change in any arteries) ([2]; Group B, 80 mg/day for 4 days): 4 cases
cases at grade 1 of ASS ([2]; Group B, 80 mg/day for 4 days): 3 cases
cases at grade 3 of ASS ([2]; Group B, 80 mg/day for 4 days): one
incidence of DIND ([2]; Group B, 80 mg/day for 4 days): one out of 9
low density area on CT scan ([2]; Group B, 80 mg/day for 4 days): no case
incidence of DIND ([2]; Group C, 160 mg/day for 4 days): no case
good in GOS (Glasgow Outcome Scale) ([2]; Group C, 160 mg/day for 4 days, one month after crisis): 4 out of 5
subjects with no change or mild degree of contraction (angiographic spasm grading) ([2]; Groups A, B and C): 64%
ASS Grade 3 (severe) ([2]; Groups A, B and C combined): 18%
CT low due to spasm ([2]; Groups A, B and C): 9%
incidence of DIND ([2]; Groups A, B and C, control 55%): 13%
good recovery (Glasgow Outcome Scale) [2, 7]: 65%
vegetative survival+death (Glasgow Outcome Scale) [2, 7]: 9%
ASS Grade 3 (severe) ([2]; Groups B and C (higher dosage)): 8%
subjects mild or none in degree of contraction (angiographic spasm grading) ([2]; Groups B and C (higher dosage)): 85%
CT low due to spasm ([2]; Groups B and C (higher dosage)): 0%
incidence of DIND ([2]; Groups B and C (higher dosage), control 55%): 7%
good recovery (Glasgow Outcome Scale) [2, 8]: 71%
vegetative survival+death (Glasgow Outcome Scale) [2, 8]: 0%
inhibition of incidence of delayed ischemic neurological deficit [2, 9]: could inhibit incidence of delayed ischemic neurological deficit
prognosis of the patient [2, 9]: improve the prognosis of the patient
activated partial thromboplastin time (APTT) [3]: in the normal ranges
bleeding time [3]: in the normal ranges
coagulation time [3]: in the normal ranges
prothrombin time (PT) [3]: in the normal ranges
platelet agglutination inhibiting action (platelet agglutination): concentration dependent platelet agglutination inhibiting action
inhibition of C 1r (C 1r): can inhibit
inhibition of C 1s (C 1s): can inhibit
inhibition of factor B [4]: can inhibit
inhibition of factor D [5]: can inhibit
inhibition of factor XIIa (factor XIIa): can inhibit
inhibition of factor Xa (factor Xa): can inhibit
inhibition of thrombin (thrombin): can inhibit
inhibition of plasma kallikrein (plasma kallikrein): can inhibit
inhibition of plasmin (plasmin): can inhibit
inhibition of trypsin (trypsin): can inhibit
passage into tissue ([6]; in vivo): quickly passes into tissue
half-life period in blood, α phase ([6]; α phase): 1.1 min
half-life period in blood, β phase ([6]; β phase): 23.1 min
